From PMC3433708, “Structural Basis for Specific Recognition of Substrates by Sapovirus Protease” (Frontiers in Microbiology, 2012)

target: T1, SaV protease (3C-like protease domain of NS6-7, Pro^wt) (Sapovirus Mc10, UniProt Q6XDK8); experiment: in vitro trans cleavage assay, […]-labelled ORF1 polyprotein (Pro^mut), SDS-PAGE, NS4-NS5 band; type: biochemical
T1 construct: gene ORF1; partial ORF1 polyprotein NS6-7-VP1 with functional protease, made by coupled in vitro transcription/translation in rabbit reticulocyte lysate, not purified; protease domain 146 residues; from ORF1 polyprotein of 2278 residues
T1 sequence (Q6XDK8 1056-1201): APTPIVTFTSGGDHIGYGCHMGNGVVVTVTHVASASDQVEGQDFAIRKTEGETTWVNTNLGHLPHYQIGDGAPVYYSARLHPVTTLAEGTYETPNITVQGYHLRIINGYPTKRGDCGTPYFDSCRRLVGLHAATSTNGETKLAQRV

Row | SMILES | IC50 [µM]
1 | Cc1cccc(N2CCN(c3ccc(C(=O)O)cc3NS(=O)(=O)c3cc(C)cc(C)c3)CC2C)c1 (stereo not drawn) [compound 100, Compound No.100] | 18.4
2 | Cc1ccc(C)n1C(CC(=O)O)c1ccc(OCc2ccccc2)cc1 (stereo not drawn) [compound 116, Compound No.116] | 18.4
3 | CN(C)c1ccc(/C=C2\CCCC3C2=NN(C(=O)CCC(=O)O)C3c2ccc(N(C)C)cc2)cc1 (stereo not drawn) [compound 50, Compound No.50] | 26.5
